Measurements: ChEMBL document CHEMBL1201862, “PubChem BioAssay data set” (2004)
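A five-concentration, 48-hour dose response in 96-well plates underlies each endpoint, interpolated linearly between surrounding concentrations. At the GI50, growth is halved.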 The source made the active and inactive calls. Rule as the data show it: active = GI50 up to about 1.1 µM and inactive = higher.

Legend:
Assay in all cases: DTP human tumour cell line panel, 48 h
SW-620 = tested on: SW-620
SF-539 = tested on: SF-539
786-0 = tested on: 786-0
UACC-62 = tested on: UACC-62
NCI-H460 = tested on: NCI-H460
EKVX = tested on: EKVX
ACHN = tested on: ACHN
SNB-19 = tested on: SNB-19
OVCAR-8 = tested on: OVCAR-8
NCI-H226 = tested on: NCI-H226
SNB-75 = tested on: SNB-75
HOP-92 = tested on: HOP-92
RPMI-8226 = tested on: RPMI-8226
SK-MEL-28 = tested on: SK-MEL-28
SR = tested on: SR

Measured: GI50

O=C(Nc1ccccc1)n1cc(-c2ccccn2)c(N2CCOCC2)n1
inactive: SW-620 5.85 µM | SF-539 6.73 µM | 786-0 4.49 µM | UACC-62 5.62 µM | NCI-H460 4.19 µM | EKVX > 100 µM | ACHN 36.6 µM | SNB-19 9.57 µM | OVCAR-8 46 µM | NCI-H226 23.8 µM | SNB-75 3.78 µM | HOP-92 16.9 µM | RPMI-8226 4.27 µM

CCCOCN1COCN/C1=N\C#N
inactive: SW-620 14 µM | SF-539 > 100 µM | SK-MEL-28 > 100 µM | 786-0 22 µM | UACC-62 > 100 µM | NCI-H460 > 100 µM | EKVX > 100 µM | ACHN 52.4 µM | SNB-19 > 100 µM | OVCAR-8 > 100 µM | NCI-H226 > 100 µM | SNB-75 > 100 µM | HOP-92 > 100 µM | RPMI-8226 69.7 µM

COc1ccccc1/N=N/c1c(-c2ccccc2)nn(C(=O)CC(=O)Nc2cccc(C)c2)c1-c1ccccc1
inactive: SW-620 41.3 µM | SF-539 30 µM | SK-MEL-28 > 100 µM | 786-0 43.1 µM | UACC-62 38.8 µM | NCI-H460 27.2 µM | EKVX 41.2 µM | ACHN 28.4 µM | SNB-19 27.2 µM | OVCAR-8 31.2 µM | NCI-H226 36.3 µM | SNB-75 11.8 µM

Cc1ccc(Sc2ccc(C)cc2[N+](=O)[O-])c([N+](=O)[O-])c1
inactive: SW-620 > 100 µM | SF-539 > 100 µM | SK-MEL-28 > 100 µM | 786-0 > 100 µM | UACC-62 > 100 µM | NCI-H460 > 100 µM | EKVX > 100 µM | ACHN > 100 µM | SNB-19 > 100 µM | OVCAR-8 > 100 µM | NCI-H226 > 100 µM | SNB-75 46.5 µM | HOP-92 > 100 µM | RPMI-8226 > 100 µM

CCOC(=O)[C-]([N+]#N)[Si](C)(C)C
inactive: SW-620 > 100 µM | SF-539 > 100 µM | SK-MEL-28 18.5 µM | 786-0 > 100 µM | UACC-62 72.4 µM | NCI-H460 > 100 µM | ACHN > 100 µM | SNB-19 > 100 µM | OVCAR-8 > 100 µM | SNB-75 > 100 µM | HOP-92 > 100 µM

COC(=O)C1=C(C(=O)OC)C2C(C)=CC(C)=CN2C(C#N)=C(SC)S1 (stereo unspecified)
inactive: SW-620 19.9 µM | SR 19 µM | SF-539 19.2 µM | SK-MEL-28 19.3 µM | 786-0 30.8 µM | UACC-62 > 10 µM | NCI-H460 > 100 µM | EKVX 25.9 µM | ACHN 28.4 µM | SNB-19 52.4 µM | OVCAR-8 22.4 µM | NCI-H226 17 µM | SNB-75 23.2 µM | RPMI-8226 21.6 µM

O=C(COc1ccc(Cl)cc1)N1CCN(C(=O)COc2ccc(Cl)cc2)c2ccccc21
inactive: SW-620 > 100 µM | SF-539 > 100 µM | SK-MEL-28 21.2 µM | 786-0 64.9 µM | NCI-H460 60.7 µM | EKVX 26.3 µM | ACHN 33.6 µM | OVCAR-8 53.2 µM | SNB-75 45.6 µM | HOP-92 30.3 µM | RPMI-8226 20.6 µM

CC12CP(=O)(c3ccccc3)CC1C2(Cl)Cl (stereo unspecified)
inactive: SW-620 > 100 µM | SF-539 > 100 µM | SK-MEL-28 > 100 µM | 786-0 > 100 µM | UACC-62 > 100 µM | NCI-H460 > 100 µM | EKVX > 100 µM | SNB-19 > 100 µM | OVCAR-8 > 100 µM | SNB-75 28.1 µM | RPMI-8226 > 100 µM

CC(=O)Nc1c(Nc2ccccc2)[nH]c(C)nc1=S
inactive: SW-620 > 100 µM | SK-MEL-28 > 100 µM | 786-0 > 100 µM | UACC-62 > 100 µM | NCI-H460 > 100 µM | EKVX > 100 µM | ACHN > 100 µM | SNB-19 > 100 µM | OVCAR-8 > 100 µM | SNB-75 92.9 µM | HOP-92 > 100 µM | RPMI-8226 > 100 µM

O=C(C=P(c1ccccc1)(c1ccccc1)c1ccccc1)CC(=S)CC(=O)C=P(c1ccccc1)(c1ccccc1)c1ccccc1
inactive: SW-620 4.29 µM | SF-539 4.09 µM | SK-MEL-28 8.22 µM | 786-0 4.16 µM | UACC-62 4.31 µM | NCI-H460 4.36 µM | EKVX 21.6 µM | ACHN 7.08 µM | SNB-19 4.33 µM | OVCAR-8 3.56 µM | NCI-H226 5.85 µM | HOP-92 1.65 µM | RPMI-8226 2.24 µM

CC(C)OC(=O)C1Cc2c([nH]c3ccccc23)C(c2ccccc2)N1 (stereo unspecified)
inactive: SW-620 > 100 µM | SF-539 > 100 µM | SK-MEL-28 42.5 µM | 786-0 27.7 µM | UACC-62 > 100 µM | NCI-H460 > 100 µM | EKVX 89.3 µM | ACHN 93.8 µM | SNB-19 > 100 µM | OVCAR-8 > 100 µM | NCI-H226 > 100 µM | SNB-75 18.3 µM | HOP-92 55 µM | RPMI-8226 84.9 µM

CCOC(=O)/C(C#N)=C1/C(O)=C(C(=O)OC)C(C(=O)OC)=C1C(=O)OC.c1ccncc1
inactive: SW-620 > 100 µM | SF-539 > 100 µM | SK-MEL-28 > 100 µM | 786-0 > 100 µM | UACC-62 > 100 µM | NCI-H460 > 100 µM | EKVX > 100 µM | ACHN > 100 µM | SNB-19 > 100 µM | OVCAR-8 > 100 µM | SNB-75 > 100 µM | HOP-92 > 100 µM | RPMI-8226 > 100 µM

C[N+](C)(C)CC(=O)N/N=C(\CCC(=O)NCCc1ccccc1)CC(=O)c1ccccc1
inactive: SW-620 > 100 µM | SF-539 > 100 µM | 786-0 > 100 µM | UACC-62 > 100 µM | NCI-H460 > 100 µM | EKVX > 100 µM | ACHN > 100 µM | SNB-19 > 100 µM | OVCAR-8 > 100 µM | NCI-H226 > 100 µM | HOP-92 > 100 µM | RPMI-8226 > 100 µM

Cc1c(Cl)ccc2[s+]snc12
inactive: SW-620 27.7 µM | SR 25.2 µM | SF-539 21.4 µM | SK-MEL-28 29.4 µM | 786-0 19.1 µM | UACC-62 22.3 µM | NCI-H460 55 µM | EKVX > 100 µM | ACHN 42.2 µM | SNB-19 73.3 µM | OVCAR-8 21.6 µM | NCI-H226 68.4 µM | SNB-75 67.6 µM

COc1cc(CCc2cccnc2)cc(OC)c1OC
inactive: SW-620 > 100 µM | SF-539 > 100 µM | SK-MEL-28 > 100 µM | 786-0 > 100 µM | UACC-62 > 100 µM | NCI-H460 > 100 µM | EKVX > 100 µM | ACHN > 100 µM | SNB-19 > 100 µM | OVCAR-8 > 100 µM | NCI-H226 > 100 µM | SNB-75 51.1 µM | HOP-92 30.3 µM | RPMI-8226 > 100 µM
